Measurements: patent publication US20250122219A1 (priority 2023, published 2025)
pEC50: −log10 of the molar value. ≈ marks a conversion by molar mass, not a printed value. Where two headings read alike, the source gives them in different places.

Assays:
[1] = test system: HIV-1 (IIIB); assay: Antiviral assay in MT-4 cells; format: cell-based; conditions: for pEC50: HIV-1 IIIB in MT-4 cells, 5 days incubation, Cell Titer Glo, read-out: MT4 EC50
Procedure, shortened: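 HIV-1 IIIB-infected MT-4 cells (fresh 1:250 virus stock dilution; mock-infected controls) incubated 5 days at 37 °C with serially diluted compounds in RPMI/10% FBS; 5 μM AZT as positive control. Cell viability read by CellTiter-Glo luminescence as measure of protection from viral replication.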

[2] = Cytotoxicity assay in MT-4 cells; format: cell-based; conditions: human; uninfected MT-4 cells, 5 days incubation, Cell Titer Glo; read-out: MT4 CC50
Procedure, shortened: (§1)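 Uninfected MT-4 cells exposed to serially diluted compounds in RPMI with 10% FBS for 5 days at 37 °C. Viability by Cell Titer Glo chemiluminescence. Puromycin […] as baseline cytotoxicity control.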

[3] = physchem; format: physicochemical; conditions: ambient temperature, 5 mg/mL dose concentration; for solubility thermodynamic at 24 h: FaSSIF
Experimental: Approximately 7 mg of each test compound as a dry powder was placed in a vial. Aliquots were weighed out for each assay media at 2 hour and 24 hour time points, to be analyzed. The appropriate buffer (FaSSIF or PBS) was added to each vial such that the final dose concentration of 5 mg/mL was achieved. […] The plate was sealed with a pierceable heat seal and analyzed by HPLC-UV.
A system QC (0.01 mg/mL Caffeine in DMSO) was injected every 12-15 injections. […] Results are reported using data obtained at 280 nm. The resulting peak areas were plotted against the known concentrations from the calibration and the filtrates are quantified with respect to the linear regression using Agilent OpenLab Intelligent Reporting Software. The results are reported electronically in mg/mL.

[4] = test system: MT-4 cells; assay: Cytotoxicity assay in MT-4 cells; format: cell-based; conditions: uninfected MT-4 cells, 5 days incubation, Cell Titer Glo; read-out: MT4 CC50
Procedure, shortened: as §1

[5] = Human immunodeficiency virus 1, MT4, 120 h
[6] = 23 °C, thermodynamic from solid

Compound	pEC50 [1, 5]	Thermodynamic PBS Solubility (mg/mL) ([3]; PBS)	solubility thermodynamic at 24 h [3, 6]	solubility thermodynamic ([3]; 23 °C, aqueous buffer, thermodynamic from solid, PBS)	CC50 at 5 days [2]	EC50 ([1]; Human immunodeficiency virus 1, IIIB, MT4, 120 h, read-out: MT4 EC50 (nM))	pEC50 [1]	CC50 [4]
COCCOCCOCCOC(=O)Oc1c2n(cc(C(=O)NCc3ccc(F)cc3F)c1=O)[C@@H]1CN(C2=O)[C@@H](C)CC[C@]12CC(OC)=NO2 [Example 3, (3′S,5S,7′R)-10′-((2,4-difluorobenzyl)carbamoyl)-3-methoxy-3′-methyl-1′,11′-dioxo-1′,4′,5′,11′-tetrahydro-3′H,4H,7′H-spiro[isoxazole-5,6′-[2,7]methanopyrido[1,2-a][1,4]diazonin]-12′-yl (2-(2-(2-methoxyethoxy)ethoxy)ethyl) carbonate]	8.97	–	470 µg/mL (≈ 679 µM)	–	16300 nM	–	–	–
COCCOCCOC(=O)Oc1c2n(cc(C(=O)NCc3ccc(F)cc3F)c1=O)[C@@H]1CN(C2=O)[C@@H](C)CC[C@]12CC(C)=NO2 [Example 8, (3′S,5S,7′R)-10′-((2,4-difluorobenzyl)carbamoyl)-3,3′-dimethyl-1′,11′-dioxo-1′,4′,5′,11′-tetrahydro-3′H,4H,7′H-spiro[isoxazole-5,6′-[2,7]methanopyrido[1,2-a][1,4]diazonin]-12′-yl (2-(2-methoxyethoxy)ethyl) carbonate]	–	–	486 µg/mL (≈ 768 µM)	–	11700 nM	0.632 nM	–	–
COCCOC(=O)OCOc1c2n(cc(C(=O)NCc3ccc(F)cc3F)c1=O)[C@@H]1CN(C2=O)[C@@H](C)CC[C@]12CC(C)=NO2 [Example 10, (((3′S,5S,7′R)-10′-((2,4-difluorobenzyl)carbamoyl)-3,3′-dimethyl-1′,11′-dioxo-1′,4′,5′,11′-tetrahydro-3′H,4H,7′H-spiro[isoxazole-5,6′-[2,7]methanopyrido[1,2-a][1,4]diazonin]-12′-yl)oxy)methyl (2-methoxyethyl) carbonate]	8.19	–	35 µg/mL (≈ 56.6 µM)	15 µg/mL (≈ 24.2 µM)	31700 nM	–	–	–
COC(=O)OCOc1c2n(cc(C(=O)NCc3ccc(F)cc3F)c1=O)[C@@H]1CN(C2=O)[C@@H](C)CC[C@]12CC(OC)=NO2 [Example 11, (((3′S,5S,7′R)-10′-((2,4-difluorobenzyl)carbamoyl)-3-methoxy-3′-methyl-1′,11′-dioxo-1′,4′,5′,11′-tetrahydro-3′H,4H,7′H-spiro[isoxazole-5,6′-[2,7]methanopyrido[1,2-a][1,4]diazonin]-12-yl)oxy)methyl methyl carbonate]	–	–	–	–	–	–	8.08	36800 nM

The next lines start with results.

pEC50 [1, 5]	Thermodynamic PBS Solubility (mg/mL) ([3]; PBS)	solubility thermodynamic at 24 h [3, 6]	solubility thermodynamic ([3]; 23 °C, aqueous buffer, thermodynamic from solid, PBS)	Compound	CC50 at 5 days [2]	EC50 ([1]; Human immunodeficiency virus 1, IIIB, MT4, 120 h, read-out: MT4 EC50 (nM))	pEC50 [1]	CC50 [4]
8.20	<LOD	–	–	CCCCCCCCCCCCCCCCCC(=O)Oc1c2n(cc(C(=O)NCc3ccc(F)cc3F)c1=O)[C@@H]1CN(C2=O)[C@@H](C)CC[C@]12CC(C)=NO2 [Example 15, (3′S,5S,7′R)-10′-((2,4-difluorobenzyl)carbamoyl)-3,3′-dimethyl-1′,11′-dioxo-1′,4′,5′,11′-tetrahydro-3′H,4H,7′H-spiro[isoxazole-5,6′-[2,7]methanopyrido[1,2-a][1,4]diazonin]-12′-yl stearate]	≥ 50000 nM	–	–	–
8.89	<LOD	–	–	CCCCC(=O)Oc1c2n(cc(C(=O)NCc3ccc(F)cc3F)c1=O)[C@@H]1CN(C2=O)[C@@H](C)CC[C@]12CC(C)=NO2 [Example 17, (3′S,5S,7′R)-10′-((2,4-difluorobenzyl)carbamoyl)-3,3′-dimethyl-1′,11′-dioxo-1′,4′,5′,11′-tetrahydro-3′H,4H,7′H-spiro[isoxazole-5,6′-[2,7]methanopyrido[1,2-a][1,4]diazonin]-12′-yl pentanoate]	10200 nM	–	–	–
7.58	–	150 µg/mL (≈ 243 µM)	–	CC1=NO[C@@]2(CC[C@H](C)N3C[C@H]2n2cc(C(=O)NCc4ccc(F)cc4F)c(=O)c(O[C@@H](C)OC(=O)OC(C)C)c2C3=O)C1 (single isomer, unassigned) [Example 21]	≥ 50000 nM	–	–	–
